Results from patent US20150018237A1, “MEANS AND METHODS FOR ASSESSING BONE DISORDERS” (BASF SE, priority 2012, published 2015).
Where two headings read alike, the source gives them in different places. Marks after values point to notes of the source that are not given here.

How the values were obtained:
rats [1] = details: rat, in vivo
Procedure: (§1) A group of each 5 male and female rats was dosed once daily with the indicated compounds (see Table 10, below for compounds, applied doses and administeration details) over 28 days.
(§2) Each dose group in the studies consisted of five rats per sex. Additional groups of each 5 male and female animals served as controls. Before starting the treatment period, animals, which were 62-64 days old when supplied, were acclimatized to the housing and environmental conditions for 7 days. All animals of the animal population were kept under the same constant temperature (20-24±3° C.) and the same constant humidity (30-70%). The animals of the animal population were fed ad libitum. The food to be used was essentially free of chemical or microbial contaminants. Drinking water was also offered ad libitum. Accordingly, the water was free of chemical and microbial contaminants as laid down in the European Drinking Water Directive 98/83/EG. The illumination period was 12 hours light followed by 12 hours darkness (12 hours light, from 6:00 to 18:00, and 12 hours darkness, from 18:00 to 6:00). The studies were performed in an AAALAC-approved laboratory in accordance with the German Animal Welfare Act and the European Council Directive 86/609/EE. The test system was arranged according to the OECD 407 guideline for the testing of chemicals for repeated dose 28-day oral toxicity study in rodents.
(§3) In the morning of day 7, 14, and 28, blood was taken from the retroorbital venous plexus from fasted anaesthetized animals. From each animal, 1 ml of blood was collected with EDTA as anticoagulant. The samples were centrifuged for generation of plasma. All plasma samples were covered with a N2 atmosphere and then stored at −80° C. until analysis.
(§4) For mass spectrometry-based metabolite profiling analyses plasma samples were extracted and a polar and a non-polar (lipid) fraction was obtained. For GC-MS analysis, the non-polar fraction was treated with methanol under acidic conditions to yield the fatty acid methyl esters. Both fractions were further derivatised with O-methyl-hydroxyamine hydrochloride and pyridine to convert Oxo-groups to O-methyloximes and subsequently with a silylating agent before analysis. In LC-MS analysis, both fractions were reconstituted in appropriate solvent mixtures. HPLC was performed by gradient elution on reversed phase separation columns. Mass spectrometric detection which allows target and high sensitivity MRM (Multiple Reaction Monitoring) profiling in parallel to a full screen analysis was applied as described in WO2003073464.
(§5) Steroids and their metabolites were measured by online SPE-LC-MS (Solid phase extraction-LC-MS).
(§6) Following comprehensive analytical validation steps, the data for each analyte were normalized against data from pool samples. These samples were run in parallel through the whole process to account for process variability. The significance of treatment group values specific for sex, treatment duration and metabolite was determined by comparing means of the treated groups to the means of the respective untreated control groups using WELCH-test and quantified with treatment ratios versus control and p-values.

rats [2] = assay: Plasma metabolite profiling (GC-MS, LC-MS) in rats dosed once daily over 28 days, treatment ratios versus control
Procedure: as §1, §2, §3, §4, §5, §6

[3] = female rats, day 28, high dose, Table 1a up-regulation
[4] = female rats, day 28, high dose, Table 1b down-regulation
[5] = male rats, day 28, high dose, Table 1c up-regulation
[6] = male rats, day 28, high dose, Table 1d down-regulation

## O=C([O-])[O-].[Ca+2] [Calcium carbonate]
Rats [1]
  3-Hydroxybutyrate, plasma, ratio versus control: 1.09*
  4-Hydroxyphenylpyruvate, plasma, ratio versus control: 0.23*
  5-Oxoproline, plasma, ratio versus control: 0.87*
  16-Methylheptadecanoic acid, plasma, ratio versus control: 0.66*
  17-Methyloctadecanoic acid, plasma, ratio versus control: 0.92*
  Alanine, plasma, ratio versus control: 0.79*
  Coenzyme Q9, plasma, ratio versus control: 0.72*
  Creatine, plasma, ratio versus control: 0.48*
  Creatinine, plasma, ratio versus control: 0.43*
  DAG (C18:1, C18:2), plasma, ratio versus control: 0.87*
  Eicosaenoic acid (C20:1) No 02, plasma, ratio versus control: 1.3*
  Glucose, plasma, ratio versus control: 0.93*
  Glycerol, lipid fraction, plasma, ratio versus control: 0.66*
  Heptadecanoic acid (C17:0), plasma, ratio versus control: 0.76*
  Hippuric acid, plasma, ratio versus control: 0.71*
  Lactate, plasma, ratio versus control: 0.95*
  Linoleic acid (C18:cis[9, 12]2), plasma, ratio versus control: 0.67*
  Linolenic acid (C18:cis[9, 12, 15]3), plasma, ratio versus control: 0.81*
  Lysophosphatidylcholine (C17:0), plasma, ratio versus control: 0.82*
  Malate, plasma, ratio versus control: 0.54*
  Phenylalanine, plasma, ratio versus control: 0.93*
  Phosphatidylcholine (C16:0, C16:0), plasma, ratio versus control: 1.06*
  Phosphatidylcholine (C18:0, C20:4), plasma, ratio versus control: 1.02*
  Pyruvate, plasma, ratio versus control: 0.77*
  Sphingomyelin (d18:2, C16:0), plasma, ratio versus control: 1.11*
  TAG (C18:1, C18:2), plasma, ratio versus control: 0.75*
  TAG (C18:2, C18:2), plasma, ratio versus control: 0.74*
  TAG (C18:2, C18:3), plasma, ratio versus control: 0.64*
  TAG (DAG-Fragment), plasma, ratio versus control: 0.72*
  TAG No 01, plasma, ratio versus control: 0.55*
  TAG No 05, plasma, ratio versus control: 0.71*
  TAG No 07, plasma, ratio versus control: 0.71*
  TAG No 059, plasma, ratio versus control: 0.68*
  Threonic acid, plasma, ratio versus control: 0.86*
  Urea, plasma, ratio versus control: 1.15*
  gamma-Linolenic acid (C18:cis[6, 9, 12]3), plasma, ratio versus control: 0.7*

## [O-][Cl+3]([O-])([O-])O [Sodium perchlorate]
Rats [2]; male rats, day 7, high dose, Table 2a up-regulation
  Isoleucine, plasma, ratio versus control: 0.97
Rats [2]; male rats, day 28, high dose, Table 2a up-regulation
  Isoleucine, plasma, ratio versus control: 1.37 *
Rats [2]; male rats, day 28, high dose, Table 2c up-regulation
  Isoleucine, plasma, ratio versus control: 1.37*

## Calcitonin (Salmon)
Rats [2]; [3]
  3-Hydroxybutyrate, plasma, ratio versus control: 1.32*
  Coenzyme Q10, plasma, ratio versus control: 1.03*
  Eicosaenoic acid (C20:1) No 02, plasma, ratio versus control: 3.35*
  Phosphate (inorganic and organic phosphates), plasma, ratio versus control: 1.31*
  Phosphatidylcholine (C18:0, C20:4), plasma, ratio versus control: 1.05*
  Sphingomyelin (d18:2, C16:0), plasma, ratio versus control: 1.11*
  Urea, plasma, ratio versus control: 1.36*
  myo-Inositol-2-phosphate, plasma, ratio versus control: 1.27*
Rats [2]; [4]
  4-Hydroxyphenylpyruvate, plasma, ratio versus control: 0.63*
  18-Hydroxy-11-deoxycorticosterone, plasma, ratio versus control: 0.85*
  Alanine, plasma, ratio versus control: 0.75*
  Creatine, plasma, ratio versus control: 0.92*
  Creatinine, plasma, ratio versus control: 0.58*
  Glucose, plasma, ratio versus control: 0.95*
  Lysophosphatidylcholine (C17:0), plasma, ratio versus control: 0.91*
  Methionine, plasma, ratio versus control: 0.85*
  Phenylalanine, plasma, ratio versus control: 0.88*
  Threonic acid, plasma, ratio versus control: 0.75*
Rats [2]; [5]
  Glycine, plasma, ratio versus control: 0.86
  Phosphate (inorganic and organic phosphates), plasma, ratio versus control: 1.35*
  Phosphatidylcholine (C16:0, C16:0), plasma, ratio versus control: 1.24*
  myo-Inositol-2-phosphate, plasma, ratio versus control: 1.41*
Rats [2]; [6]
  5-Oxoproline, plasma, ratio versus control: 0.94*
  16-Methylheptadecanoic acid, plasma, ratio versus control: 0.59*
  17-Methyloctadecanoic acid, plasma, ratio versus control: 0.65*
  18-Hydroxy-11-deoxycorticosterone, plasma, ratio versus control: 0.24*
  Alanine, plasma, ratio versus control: 0.78*
  Coenzyme Q9, plasma, ratio versus control: 0.83*
  Coenzyme Q10, plasma, ratio versus control: 0.74*
  DAG (C18:1, C18:2), plasma, ratio versus control: 0.63*
  Glycerol, lipid fraction, plasma, ratio versus control: 0.86*
  Glycine, plasma, ratio versus control: 0.86*
  Heptadecanoic acid (C17:0), plasma, ratio versus control: 0.77*
  Hippuric acid, plasma, ratio versus control: 0.48*
  Lactate, plasma, ratio versus control: 0.7*
  Linoleic acid (C18:cis[9, 12]2), plasma, ratio versus control: 0.82*
  Linolenic acid (C18:cis[9, 12, 15]3), plasma, ratio versus control: 0.61*
  Malate, plasma, ratio versus control: 0.8*
  Methionine, plasma, ratio versus control: 0.88*
  Pyruvate, plasma, ratio versus control: 0.76*
  TAG (C18:1, C18:2), plasma, ratio versus control: 0.7*
  TAG (C18:2, C18:2), plasma, ratio versus control: 0.6*
  TAG (C18:2, C18:3), plasma, ratio versus control: 0.78*
  TAG (DAG-Fragment), plasma, ratio versus control: 0.7*
  TAG No 01, plasma, ratio versus control: 0.66*
  TAG No 05, plasma, ratio versus control: 0.68*
  TAG No 07, plasma, ratio versus control: 0.78*
  TAG No 059, plasma, ratio versus control: 0.65*
  gamma-Linolenic acid (C18:cis[6, 9, 12]3), plasma, ratio versus control: 0.98
